Assay results as given in paper PMC11402040 (ESMO Open, 2024).

Columns and labels:
[1] = cited from earlier work; for LFT elevations in the clinic: dose levels evaluated in the clinic
CYP3A = assay: phase I Part 1B PK, CYP3A-mediated drug–drug interaction with enzalutamide; assay type: in vivo, human; conditions: coadministered enzalutamide 160 mg q.d.

Compound | LFT elevations in the clinic [1] | bleeding in clinical studies [1] | further results
CC(C)(O)c1cc(Nc2cc(Oc3cn(C4CC4)nc3C3CCOCC3)ccn2)ccn1 [LY3200882] | not demonstrated severe LFT elevations |  | 
CNC(=O)c1ccc(N2C(=S)N(c3ccc(C#N)c(C(F)(F)F)c3)C(=O)C2(C)C)cc1F [enzalutamide] |  |  | CYP3A4 enzyme induction effect on PF-06952229 (CYP3A): strong cytochrome P450 3A4 (CYP3A4) enzyme induction effect
Cc1cccc(-c2nn3c(c2-c2ccnc4ccc(C(N)=O)cc24)CCC3)n1 [galunisertib] | not demonstrated severe LFT elevations |  | 
bintrafusp alfa: bifunctional fusion protein targeting TGF-β and PD-L1 |  | Bleeding (including intratumoral bleeding) has been observed | 
fresolimumab: other TGF-β inhibitor in clinical studies |  | Bleeding (including intratumoral bleeding) has been observed | 
